# Literature values, collected in patent publication US20260258363A1, “THERAPY” (PLASTICELL LTD, priority 2023, published 2026).
# Test system: bone marrow derived CD34+ cells
# Conditions: pre-treatment of cells in vitro
smiles,measurement,value
NCCCNCCS [WR1065],enhancement of formation of CFU-GEMM and BFU-E colonies,≤ 38 fold
